As a reminder, the IC50 is the point on the concentration scale where inhibition reaches its midpoint.

Results on 57 molecules are retold here after patent US10105367B2, “Therapeutic thiophene-, furan-, and pyridine-fused azolopyrimidin-5-(6h)-ones” (Dart Neuroscience (Cayman) Ltd., priority 2012, dated 2018).

Bounds are passed on as bounds.

One assay concerns the target human PDE1B (Homo sapiens (Human), UniProt Q01064). The experiment in a line: PDE1B inhibitory assay (IMAP TR-FRET). The settings on record: PDE1B pIC50, negative log of half-maximal molar inhibitory concentration; 200 nM FAM-cAMP, Calmodulin, CaCl2.
`COc1ccc(Cn2c(=O)n3ncnc3c3c4c(sc32)CN(C(C)C(F)F)CC4)cc1` (stereo not drawn) [Example 151] showed an IC50 of 0.1 to 1 µM.
The molecule `COc1ccc(Cn2c(=O)n3ncnc3c3c4c(sc32)N(Cc2ccc(Cl)cc2)CCC4)cc1` [Example 152] showed a half-maximal inhibitory concentration (IC50) of 0.1 to 1 µM.
`COc1ccc(Cn2c(=O)n3ncnc3c3c4c(sc32)N(Cc2ccc(Cl)cc2)CCC4)cc1OC` [Example 153] yielded an IC50 of 1 to 10 µM.
In the case of `COc1ccc(Cn2c(=O)n3ncnc3c3c4c(sc32)N(Cc2cccc(Cl)c2)CCC4)cc1OC` [Example 155], the IC50 lay in the range of 1 to 10 µM.
For the molecule `COc1ccc(Cn2c(=O)n3ncnc3c3c4c(sc32)CN(C(=O)C2CCN(C)C2)CC4)cc1` (stereo not drawn) [Example 163], the IC50 was in the range of 0.1 to 1 µM.
Molecule `COc1ccc(Cn2c(=O)n3ncnc3c3c4c(sc32)N(C(=O)c2ccccc2)CCC4)cc1OC` [Example 176] gave an IC50 of 1 to 10 µM.
Same read-out and setting: to `COc1ccc(Cn2c(=O)n3ncnc3c3c4c(sc32)CN(CC2CNCCO2)CC4)cc1` (stereo not drawn) [Example 180, 6-(4-Methoxybenzyl)-9-(morpholin-2-ylmethyl)-8,9,10,11-tetrahydropyrido[4′,3′:4,5]thieno[3,2-e][1,2,4]triazolo[1,5-c]pyrimidin-5(6H)-one] belongs 0.1 to 1 µM.
The molecule `COc1ccc(Cn2c(=O)n3ncnc3c3c4c(sc32)CN(C(=O)C2CCNC2)CC4)cc1` (stereo not drawn) [Example 181] had an IC50 of 0.1 to 1 µM.
`COc1ccc(Cn2c(=O)n3ncnc3c3c4c(sc32)CN(CC2CCNCC2)CC4)cc1` [Example 182] came in with an IC50 of 0.1 to 1 µM.
Still for that read-out and setting: with `COc1ccc(Cn2c(=O)n3nccc3c3cc(CN4CCOCC4)sc32)cc1` [Example 183, 4-(4-Methoxybenzyl)-2-(morpholinomethyl)pyrazolo[1,5-c]thieno[3,2-e]pyrimidin-5(4H)-one] the figure was 0.1 to 1 µM.
On to `COc1ccc(Cn2c(=O)n3ncnc3c3cc(Br)cnc32)cc1` [Example 185, 9-Bromo-6-(4-methoxybenzyl)pyrido[3,2-e][1,2,4]triazolo[1,5-c]pyrimidin-5(6H)-one], for which the IC50 was 0.1 to 1 µM.
Turning to `COc1ccc(Cn2c(=O)n3ncnc3c3ncc(Br)cc32)cc1` [Example 186], the half-maximal inhibitory concentration (IC50) is 1 to 10 µM.
In turn, `COc1ccc(Cn2c(=O)n3ncnc3c3ccc(C(OC)OC)nc32)cc1` [Example 187] displayed an IC50 of 1 to 10 µM.
In turn, `COc1ccc(Cn2c(=O)n3ncnc3c3nc(Br)cnc32)cc1` [Example 188] came in with a concentration for half-maximal inhibition (IC50) of 0.1 to 1 µM.
Still for that read-out and setting: with `COc1ccc(Cn2c(=O)n3ncnc3c3cc(-c4ccc(OC)nc4)cnc32)cc1` [Example 190] the figure was 0.1 to 1 µM.
On the same count and under the same terms, to `COc1ccc(Cn2c(=O)n3ncnc3c3cc(-n4nc(C)ccc4=O)cnc32)cc1` [Example 192, 6-(4-Methoxybenzyl)-9-(3-methyl-6-oxopyridazin-1(6H)-yl)pyrido[3,2-e][1,2,4]triazolo[1,5-c]pyrimidin-5(6H)-one] belongs 0.1 to 1 µM.
The same measure, in the same setting: with `COc1ccc(Cn2c(=O)n3ncnc3c3cc(N4CCN(C5CC5)CC4)cnc32)cc1` [Example 193, 9-(4-Cyclopropylpiperazin-1-yl)-6-(4-methoxybenzyl)pyrido[3,2-e][1,2,4]triazolo[1,5-c]pyrimidin-5(6H)-one] the figure was 0.1 to 1 µM; with `COc1ccc(Cn2c(=O)n3ncnc3c3cc(N[C@H]4CCCC[C@@H]4N)cnc32)cc1` [Example 194], 1 to 10 µM.
As to `COc1ccc(Cn2c(=O)n3ncnc3c3nc(N(C)C4CCN(C)CC4)cnc32)cc1` [Example 195], the IC50 lay within 1 to 10 µM.
Consider `COc1ccc(Cn2c(=O)n3ncnc3c3nc(N(C)CCN(C)C)cnc32)cc1` [Example 196], for which the half-inhibitory concentration (IC50) fell in the range of 1 to 10 µM.
As to `COCCN1CCN(c2cnc3c(c2)c2ncnn2c(=O)n3Cc2ccc(OC)cc2)CC1` [Example 197], the half-maximal inhibitory concentration (IC50) was 0.1 to 1 µM.
The molecule `COc1ccc(Cn2c(=O)n3ncnc3c3cc(N4CCC(N(C)C)C4)cnc32)cc1` (stereo not drawn) [Example 198] came in with a concentration for half-maximal inhibition (IC50) of 0.1 to 1 µM.
As to `COc1ccc(Cn2c(=O)n3ncnc3c3cc(N4CCC(N(C)C)CC4)cnc32)cc1` [Example 199], the IC50 was in the range of 0.1 to 1 µM.
On to `COc1ccc(Cn2c(=O)n3ncnc3c3cc(N(C)C4CCOCC4)cnc32)cc1` [Example 200], for which the IC50 was 0.1 to 1 µM.
As for `COc1ccc(Cn2c(=O)n3ncnc3c3cc(N4C[C@@H](C)O[C@@H](C)C4)cnc32)cc1` [Example 201], the half-maximal inhibitory concentration (IC50) was in the range of 0.1 to 1 µM.
On the same count and under the same terms, to `COc1ccc(Cn2c(=O)n3ncnc3c3cc(N(C)CCCN(C)C)cnc32)cc1` [Example 202] belongs 1 to 10 µM; to `COc1ccc(Cn2c(=O)n3ncnc3c3cc(N4CCN(S(C)(=O)=O)CC4)cnc32)cc1` [Example 203], 0.1 to 1 µM; to `COc1ccc(Cn2c(=O)n3ncnc3c3cc(CCNC(=O)OCc4ccccc4)cnc32)cc1` [Example 204, Benzyl 2-(6-(4-Methoxybenzyl)-5-oxo-5,6-dihydropyrido[3,2-e][1,2,4]triazolo[1,5-c]pyrimidin-9-yl)ethylcarbamate], 0.1 to 1 µM.
With `COc1ccc(Cn2c(=O)n3ncnc3c3cc(CN4CCOCC4)cnc32)cc1` [Example 205], the half-inhibitory concentration (IC50) lay within 0.1 to 1 µM.
As to `COc1ccc(Cn2c(=O)n3ncnc3c3cc(CN4CCCCC4)cnc32)cc1` [Example 206], the IC50 lay within 0.1 to 1 µM.
`COc1ccc(Cn2c(=O)n3ncnc3c3cc(CN4CCSCC4)cnc32)cc1` [Example 207] displayed an IC50 of 0.1 to 1 µM.
For the molecule `O=c1n(Cc2ccc(Cl)cc2)c2ncc(CN3CCOCC3)cc2c2ncnn12` [Example 208], the IC50 lay within 0.1 to 1 µM.
In turn, `O=c1n(Cc2ccc(Cl)cc2)c2ncc(CN3CCCCC3)cc2c2ncnn12` [Example 209] displayed an IC50 of 1 to 10 µM.
Regarding `C[C@@H]1CN(Cc2cnc3c(c2)c2ncnn2c(=O)n3Cc2ccc(Cl)cc2)C[C@H](C)O1` [Example 210], the IC50 was 0.1 to 1 µM.
In turn, `COc1ccc(Cn2c(=O)n3ncnc3c3cc(CCN)cnc32)cc1` [Example 211, 9-(2-Aminoethyl)-6-(4-methoxybenzyl)pyrido[3,2-e][1,2,4]triazolo[1,5-c]pyrimidin-5(6H)-one] showed an IC50 of 1 to 10 µM.
In the case of `COc1ccc(Cn2c(=O)n3ncnc3c3cc(CCNC4CCOCC4)cnc32)cc1` [Example 212, 6-(4-Methoxybenzyl)-9-(2-(tetrahydro-2H-pyran-4-ylamino)ethyl)pyrido[3,2-e][1,2,4]triazolo[1,5-c]pyrimidin-5(6H)-one], the half-inhibitory concentration (IC50) lay in the range of 1 to 10 µM.
In turn, `COc1ccc(Cn2c(=O)n3ncnc3c3cc(CCNC(C)c4ccccc4)cnc32)cc1` (stereo not drawn) [Example 213] registered a concentration for half-maximal inhibition (IC50) of 0.1 to 1 µM.
The molecule `C=Cc1cnc2c(c1)c1ncnn1c(=O)n2Cc1ccc(OC)cc1` [Example 214, 6-(4-Methoxybenzyl)-9-vinylpyrido[3,2-e][1,2,4]triazolo[1,5-c]pyrimidin-5(6H)-one] gave an IC50 of 0.1 to 1 µM.
Consider `COCOCc1cnc2c(c1)c1ncnn1c(=O)n2Cc1ccc(OC)cc1` [Example 215], for which the half-inhibitory concentration (IC50) is 0.1 to 1 µM.
Same read-out and setting: to `C=C(OCC)c1cnc2c(c1)c1ncnn1c(=O)n2Cc1ccc(OC)cc1` [Example 216] belongs 0.1 to 1 µM; to `COc1ccc(Cn2c(=O)n3ncnc3c3cc(CO)cnc32)cc1` [Example 217, 9-(Hydroxymethyl)-6-(4-methoxybenzyl)pyrido[3,2-e][1,2,4]triazolo[1,5-c]pyrimidin-5(6H)-one], 0.1 to 1 µM.

The assay is the same for the next values; noted with them: negative log of half-maximal molar inhibitory concentration; 200 nM FAM-cAMP, Calmodulin, CaCl2.
Consider `COc1ccc(Cn2c(=O)n3ncnc3c3c4c(sc32)CN(CC2CCOCC2)CC4(F)F)c(F)c1` [Example 156], for which the “PDE1B pIC50” value is on record as >7.
Regarding `O=C(c1cnccn1)N1CCc2c(sc3c2c2ncnn2c(=O)n3Cc2ccc(Cl)cc2)C1` [Example 157, 6-(4-Chlorobenzyl)-9-(pyrazine-2-carbonyl)-8,9,10,11-tetrahydropyrido[4′,3′:4,5]thieno[3,2-e][1,2,4]triazolo[1,5-c]pyrimidin-5(6H)-one], the “PDE1B pIC50” value is >7.
For the molecule `COc1ccc(Cn2c(=O)n3ncnc3c3c4c(sc32)CN(C(=O)C2CC2)CC4)cc1` [Example 159], the “PDE1B pIC50” value is listed as >7.
As to `COc1ccc(Cn2c(=O)n3ncnc3c3c4c(sc32)CN(S(C)(=O)=O)CC4)cc1` [Example 162], the “PDE1B pIC50” value is listed as >7.
With `O=C(C1CC1)N1CCc2c(sc3c2c2ncnn2c(=O)n3Cc2ccc(Cl)cc2F)C1` [Example 164], the “PDE1B pIC50” value is on record as >7.
`COc1ccc(Cn2c(=O)n3ncnc3c3c4c(sc32)CN(C(=O)C2CCOC2)CC4(F)F)cc1` (stereo not drawn) [Example 166]: the “PDE1B pIC50” value was >7.
Still for that read-out and setting: to `COc1ccc(Cn2c(=O)n3ncnc3c3c4c(sc32)CN(C(=O)C2CCOC2)CC4)c(F)c1` (stereo not drawn) [Example 167] belongs >7; to `COc1ccc(Cn2c(=O)n3ncnc3c3c4c(sc32)CN(C(=O)C2CC2)CC4)c(F)c1` [Example 168], >7.
`COc1ccc(Cn2c(=O)n3ncnc3c3c4c(sc32)CN(C(=O)[C@@H]2CCOC2)CC4)cc1` [Example 169]: the “PDE1B pIC50” value is recorded as >7.
With `COc1ccc(Cn2c(=O)n3ncnc3c3c4c(sc32)CN(C(=O)C2CCOC2)CC4)cc1` (stereo not drawn) [Example 170], the “PDE1B pIC50” value was >7.
On the same count and under the same terms, with `COc1ccc(Cn2c(=O)n3ncnc3c3c4c(sc32)N(C(=O)C2CC2)CCC4)cc1` [Example 174] the figure was >7; with `COc1ccc(Cn2c(=O)n3ncnc3c3c4c(sc32)N(C(=O)C2CCOC2)CCC4)cc1` (stereo not drawn) [Example 175], >7; with `COc1ccc(Cn2c(=O)n3ncnc3c3c4c(sc32)CN(c2ccccn2)CC4)cc1` [Example 179, 6-(4-Methoxybenzyl)-9-(pyridin-2-yl)-8,9,10,11-tetrahydropyrido[4′,3′:4,5]thieno[3,2-e][1,2,4]triazolo[1,5-c]pyrimidin-5(6H)-one], >7.
In the case of `COc1ccc(Cn2c(=O)n3nccc3c3cc(CN4C[C@@H](C)O[C@@H](C)C4)sc32)cc1` [Example 184], the “PDE1B pIC50” value was >7.
Still for that read-out and setting: to `COc1ccc(Cn2c(=O)n3ncnc3c3cc(-c4ccc(OC)c(OC)c4)cnc32)cc1` [Example 189, 9-(3,4-Dimethoxyphenyl)-6-(4-methoxybenzyl)pyrido[3,2-e][1,2,4]triazolo[1,5-c]pyrimidin-5(6H)-one] belongs >7; to `COc1ccc(Cn2c(=O)n3ncnc3c3cc(-c4cccnc4OC)cnc32)cc1` [Example 191], >7.
